Experimental data from US6723522B1, “Sodium bicarbonate cotransporter protein” (Takeda Chemical Industries, Ltd., priority 1998, dated 2004).

Tested on: human heart-derived protein hNBC2b (Na+—HCO3− cotransporter)
Experiment: Analysis of functions of human heart-derived protein by intracellular pH measurement (BCECF, ammonium pre-pulse) in hNBC2b-33/CHO-K1 cell
Format: cell-based
Conditions: DIDS final concentration 100 μM, 1 mM amyloride present
Procedure: Data is expressed as mean±standard error. Comparison between 2 groups was carried out by T test and p<0.001 was determined to be significant. hNBC2b-33/CHO-K1 cell which had been cultured in Ham F12 medium (manufactured by Nissuiseiyaku) containing 10% bovine fetal serum (manufactured by Life Technologies, Inc.; USA) and wild type CHO-K1 cell as a control were seeded on a 96-well white plate to 2×10^4 cells/well, and cultured in a carbonic gas incubator at 37° C. for 48 hours. […] The solution was aspiration-removed, washed with 150 μl of A solution, the solution was aspiration-removed, 150 μl of A solution containing 1 mM amyloride (manufactured by Sigma) was added, and variation in an intracellular pH was measured with a fluorescent drug screening system FDSS 2000 (Hamamatsu Photonics). 200 μl of C solution (115 mM sodium chloride, 25 mM potassium chloride, 25 mM sodium bicarbonate, 0.8 mM dipotassium phosphate, 0.2 mM monopotassium phosphate, 1 mM potassium chloride, 1 mM magnesium chloride, 1 mM amyloride (manufactured by Sigma), 10 mM HEPES, pH 7.4) was added, and an increased amount of an intracellular pH increased in 1 minute (a ratio of fluorescent values at 450 nm and 490 nm (450 nm/490 nm)) was calculated. […]

For `O=S(=O)(O)c1cc(N=C=S)ccc1C=Cc1ccc(N=C=S)cc1S(=O)(=O)O` [DIDS, 4,4′-diisothiocyanatostilbene-2,2′-disulfonic acid], the “increase in an intracellular pH after addition of C solution containing sodium ions and bicarbonate ions (ratio of fluorescent values 450 nm/490 nm)” value was “suppressed”.
